Converted amounts (≈) assume the structure as drawn.
Assays:
Aurora-A = molecular target: T1, Aurora-A (Homo sapiens, UniProt O14965); test: radiometric 33PanQinase protein kinase assay; assay type: biochemical; details: for remaining activity at 10 µM: 10 µM compound, residual kinase activity; for IC50: radiometric assay, 1 µM ATP
T1 construct: host or cells: Sf9 (baculovirus)
T1 sequence (O14965 1-403): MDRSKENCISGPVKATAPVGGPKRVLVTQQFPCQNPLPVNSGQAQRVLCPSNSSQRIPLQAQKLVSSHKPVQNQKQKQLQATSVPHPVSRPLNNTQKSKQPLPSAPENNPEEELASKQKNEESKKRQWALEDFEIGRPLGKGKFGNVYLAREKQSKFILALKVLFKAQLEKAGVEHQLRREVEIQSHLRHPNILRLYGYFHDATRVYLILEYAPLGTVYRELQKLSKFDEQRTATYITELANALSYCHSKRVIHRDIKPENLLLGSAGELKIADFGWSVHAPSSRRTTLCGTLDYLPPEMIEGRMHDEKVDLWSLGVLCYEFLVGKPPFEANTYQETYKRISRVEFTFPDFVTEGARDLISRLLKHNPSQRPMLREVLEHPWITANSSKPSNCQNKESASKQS
Procedure: (§1) The inhibitory activity of prototype 2a was determined in a panel of 24 tumor-relevant protein kinases using a radiometric assay. Only the kinases Aurora A, VEGF-R2 and VEGF-R3 were inhibited with single digit micromolar IC50 values (Table 2). Structural modifications were then implemented, particularly directed to improve inhibition of Aurora A. The so-designed congeners with small substituents at the aniline ring 2b–2n were examined for inhibition of Aurora A and of VEGF-R2, VEGF-R3 and Aurora B for comparison (Table 3).
(§2) The screening for protein kinase inhibition was performed with the radiometric ^33Panqinase activity assay at Reaction Biology Europe GmbH (Freiburg) using a robotic system (Beckmann Coulter/SagianRoboter) and 96-well plates (FlashPlates, Perkin/Elmer/NEN, Boston, MA, USA). In brief, the transfer of ^33P-phosphate into the substrate was measured with a microplate scintillation counter (Microbeta Trilux, Wallace). Protein kinases were expressed in Sf9 cells as recombinant glutathione S-transferase (GST) or polyhistidine (His)-tagged proteins in baculovirus. Isolation and purification of expressed kinases were performed with affinity chromatography by using GSH agarose (Sigma) or Ni-NTA agarose (Qiagen). The standard solution for each enzyme contained: 60 mM HEPES-NaOH (pH 7.5), 3 mM MgCl2, 3 µM sodium orthovanadate, 1.2 mM DTT, 50 µg/mL PEG20000 and 1 µM [γ-^33P]-ATP (approximately 5 × 10^5 cpm per well). In chronological order the reaction mixture was prepared: 20 µL standard solution, 5 µL ATP solution in water, 5 µL of the compound in 10% DMSO and 20 µL of enzyme/substrate mixture (50:50). Each kinase contained different substrates in different concentrations: 125 ng/50 µL Poly(Glu, Tyr)4:1 for 20 ng/50 µL IGF1-R, 25 ng/50 µL IGF1-R, 20 ng/50 µL EGF-R, 25 ng/50 µL EGF-R, 40 ng/50 µL EGF-R, 10 ng/50 µL EPHB4, 20 ng/50 µL EPHB4, 200 ng/50 µL ERBB2, 10 ng/50 µL SRC, 100 ng/50 µL FAK, 200 ng/50 µL FAK, 50 ng/50 µL VEGF-R2, 100 ng/50 µL VEGF-R3, 200 ng/50 µLTIE2; 250 ng/50 µL Poly(Glu, Tyr)4:1 for 200 ng/50 µL TIE2; 500 ng/50 µL tetra (LRRWSLG) for 50 ng/50 µL Aurora-A, 25 ng/50 µL PAK4, 25 ng/50 µL PDK1; 250 ng/50 µL tetra (LRRWSLG) for 50 ng/50 µL Aurora-B, 200 ng/50 µL Aurora-B; 125 ng/50 µL Histon H1 for 100 ng/50 µL CDK2/CycA; 250 ng/50 µL Rb-CTF for 50 ng/50 µL CDK/CycD1; 500 ng/50 µL Rb-CTF for 50 ng/50 µL CDK4/CycD1; 125 ng/50 µL Poly(ala, Glu, Lys, Tyr)6:2:5:1 for 25 ng/50 µL INS-R, 50 ng/50 µL PDGFR-beta, 100 ng/50 µL PDGFR-beta, 100 ng/50 µL FLT3, 150 ng/50 µL FLT3, 20 ng/50 µL MET, 50 ng/50 µL MET, 100 ng/50 µL MET; 250 ng/50 µL Casein for 200 ng/50 µL CK2-alpha1, 200 ng/50 µL PLK1; 1000 ng/50 µL Casein for 200 ng/50 µL PLK1, 200 ng/50 µL CK2-alpha1; 1000 ng/50 µLGSK3 (14–27) for 100 ng/50 µL AKT1; 125 ng/50 µL p53-CTM for 150 ng/50 µL CK2-alpha1, 200 ng/50 µLCK2-alpha1; 250 ng/50 µL MEK-KM for 20 ng/50 µL B-RAF-VE; autophosphorylation at ARK5, COT and SAK. After incubation (80 min, 30 °C) the reaction was stopped by adding 50 µL 2% (v/v) phosphoric acid to the reaction mixture. The microplate was washed twice with 200 µL 0.9% (v/v) saturated sodium chloride or water. The measured radioactivity, conditioned by the incorporation of [γ-^33P]-phosphate, is proportional to kinase activity. Furthermore, low control and high control were measured to determine the residual activity (%). As low controls, mixtures with substrate, but without enzyme were used to determine the unspecific binding of [γ-^33P]-phosphate to the well plate. Mixtures with enzyme, but without inhibitor were used as high controls to determine maximum enzyme activity. The IC50-values of the distinct compounds were calculated with Quattro Workflow V1.1.0.8 (Quattro Research GmbH, München, Germany). Dose response curves were generated by measurement of the residual activity of ten different inhibitor concentrations (0.1 mM, 30.0 µM, 10 µM, 3.0 µM, 1.0 µM, 0.3 µM, 0.1 µM, 30.0 nM, 10.0 nM and 3.0 nM). […]

Aurora-B = molecular target: T2, Aurora-B (Homo sapiens, UniProt Q96GD4); test: radiometric 33PanQinase protein kinase assay; assay type: biochemical; details: for remaining activity at 10 µM: 10 µM compound, residual kinase activity; for IC50: radiometric assay, 1 µM ATP
T2 construct: host or cells: Sf9 (baculovirus)
T2 sequence (Q96GD4 whole entry): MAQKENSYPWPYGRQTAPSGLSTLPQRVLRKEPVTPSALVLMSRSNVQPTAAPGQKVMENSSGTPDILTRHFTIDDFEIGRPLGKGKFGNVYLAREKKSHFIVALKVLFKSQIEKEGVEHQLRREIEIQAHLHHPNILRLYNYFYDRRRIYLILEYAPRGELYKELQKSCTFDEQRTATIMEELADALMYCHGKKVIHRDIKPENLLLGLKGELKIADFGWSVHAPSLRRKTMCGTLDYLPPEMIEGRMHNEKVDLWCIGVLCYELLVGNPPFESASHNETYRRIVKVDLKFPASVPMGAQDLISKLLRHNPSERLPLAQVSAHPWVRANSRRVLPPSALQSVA
Procedure: as §1, §2

VEGF-R2 = molecular target: T3, VEGF-R2 (Homo sapiens, UniProt P35968); test: radiometric 33PanQinase protein kinase assay; assay type: biochemical; details: for remaining activity at 10 µM: 10 µM compound, residual kinase activity; for IC50: radiometric assay, 1 µM ATP
T3 construct: host or cells: Sf9 (baculovirus)
T3 sequence (P35968 20-1356): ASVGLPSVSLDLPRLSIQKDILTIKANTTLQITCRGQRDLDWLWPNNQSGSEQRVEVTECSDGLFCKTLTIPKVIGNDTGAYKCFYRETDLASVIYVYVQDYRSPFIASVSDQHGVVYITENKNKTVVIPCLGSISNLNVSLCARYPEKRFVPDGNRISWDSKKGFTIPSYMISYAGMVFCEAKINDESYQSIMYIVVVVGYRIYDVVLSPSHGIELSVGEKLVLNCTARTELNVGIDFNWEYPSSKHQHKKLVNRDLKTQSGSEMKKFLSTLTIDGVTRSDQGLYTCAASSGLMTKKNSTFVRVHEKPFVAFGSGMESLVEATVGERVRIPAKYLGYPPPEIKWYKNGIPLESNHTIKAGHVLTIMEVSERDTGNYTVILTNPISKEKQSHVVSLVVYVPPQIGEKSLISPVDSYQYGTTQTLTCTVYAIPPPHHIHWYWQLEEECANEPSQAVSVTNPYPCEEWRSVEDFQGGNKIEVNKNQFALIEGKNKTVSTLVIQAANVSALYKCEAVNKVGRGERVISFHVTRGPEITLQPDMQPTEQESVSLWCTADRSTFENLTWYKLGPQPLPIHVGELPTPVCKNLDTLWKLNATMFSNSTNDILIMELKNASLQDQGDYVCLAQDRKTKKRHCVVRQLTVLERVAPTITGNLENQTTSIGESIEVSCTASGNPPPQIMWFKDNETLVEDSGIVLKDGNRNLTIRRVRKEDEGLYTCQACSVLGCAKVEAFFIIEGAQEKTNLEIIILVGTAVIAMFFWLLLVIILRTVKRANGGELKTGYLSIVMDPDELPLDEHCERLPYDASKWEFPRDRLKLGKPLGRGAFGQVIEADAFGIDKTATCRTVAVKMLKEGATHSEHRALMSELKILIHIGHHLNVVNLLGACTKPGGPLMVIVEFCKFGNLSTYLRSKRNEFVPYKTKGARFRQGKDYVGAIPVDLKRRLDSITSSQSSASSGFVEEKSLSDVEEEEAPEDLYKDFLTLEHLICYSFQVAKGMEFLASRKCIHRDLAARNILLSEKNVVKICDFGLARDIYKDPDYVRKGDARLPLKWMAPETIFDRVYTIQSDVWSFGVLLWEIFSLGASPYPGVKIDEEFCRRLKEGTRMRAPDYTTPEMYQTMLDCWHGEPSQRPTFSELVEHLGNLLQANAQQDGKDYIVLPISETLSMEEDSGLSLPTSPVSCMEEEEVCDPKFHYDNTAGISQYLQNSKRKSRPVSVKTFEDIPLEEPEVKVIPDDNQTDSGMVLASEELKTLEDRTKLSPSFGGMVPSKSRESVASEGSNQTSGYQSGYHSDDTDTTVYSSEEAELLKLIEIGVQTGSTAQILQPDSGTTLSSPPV
Procedure: as §1, §2

VEGF-R3 = molecular target: T4, VEGF-R3 (Homo sapiens, UniProt P35916); test: radiometric 33PanQinase protein kinase assay; assay type: biochemical; details: for remaining activity at 10 µM: 10 µM compound, residual kinase activity; for IC50: radiometric assay, 1 µM ATP
T4 construct: host or cells: Sf9 (baculovirus)
T4 sequence (P35916 25-1363): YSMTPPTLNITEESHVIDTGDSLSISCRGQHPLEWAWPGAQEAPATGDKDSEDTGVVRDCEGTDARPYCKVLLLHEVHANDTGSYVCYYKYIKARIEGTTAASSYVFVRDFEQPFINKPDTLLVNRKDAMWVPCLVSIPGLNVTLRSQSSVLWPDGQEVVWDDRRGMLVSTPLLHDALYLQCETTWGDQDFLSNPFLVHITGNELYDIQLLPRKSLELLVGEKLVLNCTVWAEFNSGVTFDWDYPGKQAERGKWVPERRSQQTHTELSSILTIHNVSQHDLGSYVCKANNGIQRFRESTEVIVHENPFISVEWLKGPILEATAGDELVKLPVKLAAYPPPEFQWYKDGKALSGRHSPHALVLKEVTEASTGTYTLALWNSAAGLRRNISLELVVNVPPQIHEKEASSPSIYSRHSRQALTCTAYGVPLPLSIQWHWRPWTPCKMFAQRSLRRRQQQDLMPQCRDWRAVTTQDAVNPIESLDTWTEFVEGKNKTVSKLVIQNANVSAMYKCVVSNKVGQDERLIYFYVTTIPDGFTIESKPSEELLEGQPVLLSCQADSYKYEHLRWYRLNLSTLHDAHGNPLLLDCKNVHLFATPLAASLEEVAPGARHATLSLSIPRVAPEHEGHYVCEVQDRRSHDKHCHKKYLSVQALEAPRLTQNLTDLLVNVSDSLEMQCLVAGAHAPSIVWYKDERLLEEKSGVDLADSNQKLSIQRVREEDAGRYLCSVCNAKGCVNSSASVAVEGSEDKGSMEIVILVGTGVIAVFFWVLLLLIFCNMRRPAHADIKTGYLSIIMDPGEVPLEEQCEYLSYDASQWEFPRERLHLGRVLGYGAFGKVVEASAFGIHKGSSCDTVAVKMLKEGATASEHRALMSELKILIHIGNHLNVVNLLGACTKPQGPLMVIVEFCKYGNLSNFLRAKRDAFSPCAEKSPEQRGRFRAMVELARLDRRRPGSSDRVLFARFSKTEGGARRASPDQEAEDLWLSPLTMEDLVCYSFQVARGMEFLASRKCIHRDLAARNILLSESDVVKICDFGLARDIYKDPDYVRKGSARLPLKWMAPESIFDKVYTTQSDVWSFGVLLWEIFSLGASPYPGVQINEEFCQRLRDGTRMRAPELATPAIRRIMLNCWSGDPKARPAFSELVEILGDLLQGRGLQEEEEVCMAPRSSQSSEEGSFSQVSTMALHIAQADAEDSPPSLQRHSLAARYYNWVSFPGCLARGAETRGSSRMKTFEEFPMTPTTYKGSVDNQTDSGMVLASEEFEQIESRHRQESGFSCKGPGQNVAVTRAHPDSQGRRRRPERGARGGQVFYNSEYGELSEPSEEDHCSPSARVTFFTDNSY
Procedure: as §1, §2

[1] = kinetic solubility by nephelometry; assay type: physicochemical; details: phosphate buffer, 25 °C, pH 7.4, aqueous buffer, kinetic from dmso stock, phosphate buffer pH 7.4, 1% DMSO, mean of two measurements, range in brackets
Procedure: The kinetic solubility of test compounds was determined by nephelometry. Dilution series of test compounds in DMSO with eight to ten different concentrations were prepared. The dilutions were pipetted (2 µL) into the cavities of a 96 well plate (CorningTM UV-transparent flat-bottom microtiter plate; Corning Incorporated, Kennebunk, ME, USA). A phosphate buffer solution pH 7.4 (198 µL) was added, so that the DMSO concentration in the measured solutions was 1%. Three wells were filled with DMSO and phosphate buffer pH 7.4 (2:198) and measured as blank values. The 96 well plate prepared in this way was measured with the NEPHELOstar® Plus nephelometer (BMG Labtech GmbH, Ortenberg, Germany, software: Omega 5.11) at a temperature of 25 °C. Previously, the plate was shaken at 500 rpm for 10 s and the laser intensity was set to 80%. The beam focus was set to 2.50 mm. If the test substance is completely soluble, only a scattering close to the blank value is detected. As soon as a critical concentration is reached in which the kinetic solubility of the test compound is exceeded, solid particles precipitate. Undissolved particles in the sample scatter the laser beam. The intensity of the scattered light is determined, which is proportional to the number of particles in the solution. The blank values were determined and subtracted from the measured values of the test compounds. By measuring different concentrations of the test substances, different intensities of the scattered light, indicated as RNU (relative nephelometric units), were determined. Kick off curves were obtained by plotting concentrations against the RNU values. The point of intersection of the horizontal and of the ascending part of the kick-off curve indicated the kinetic solubility concentration.

`O=C1CCCc2cc(-c3ccnc(Nc4ccccc4Br)n3)ccc2N1` [Compound 2l, 7-[2-(2-Bromoanilino)pyrimidin-4-yl]-1,3,4,5-tetrahydro-2H-1-benzazepin-2-one] gave a remaining activity at 10 µM (Aurora-A) of 73%, a remaining activity at 10 µM (Aurora-B) of 116% and a remaining activity at 10 µM (VEGF-R2) of 78%. It also gave a remaining activity at 10 µM (VEGF-R3) of 64%.
`O=C1CCCc2cc(-c3ccnc(Nc4ccc(Br)cc4)n3)ccc2N1` [Compound 2g, 7-[2-(4-Bromoanilino)pyrimidin-4-yl]-1,3,4,5-tetrahydro-2H-1-benzazepin-2-one] gave an IC50 (Aurora-A) of 3.5 µM, an IC50 (Aurora-B) of 18 µM and an IC50 (VEGF-R2) of 5.4 µM. For the same molecule, the IC50 (VEGF-R3) was 4.1 µM.
For `O=C1CCCc2cc(-c3ccnc(Nc4ccc(I)cc4)n3)ccc2N1` [Compound 2h, 7-[2-(4-Iodoanilino)pyrimidin-4-yl]-1,3,4,5-tetrahydro-2H-1-benzazepin-2-one], the IC50 (Aurora-A) was 3.5 µM, the IC50 (Aurora-B) was 52 µM and the IC50 (VEGF-R2) was 17 µM. It also gave an IC50 (VEGF-R3) of 6.2 µM.
Molecule `O=C1CCCc2cc(-c3ccnc(Nc4cccc(OCCCNS(=O)(=O)N5CCCC5)c4)n3)ccc2N1` [Compound 14c, N-{3-[3-((4-(2-Oxo-2,3,4,5-tetrahydro-1H-benzo[b]azepin-7-yl)pyrimidin-2-yl)amino)phenoxy]propyl}-pyrrolidine-1-sulfonamide] has an IC50 (Aurora-A) of 4.5 µM and a solubility kinetic at 10 s [1] of 25.3 µM (≈ 13.6 µg/mL).
For `COc1ccc(Nc2nccc(-c3ccc4c(c3)CCCC(=O)N4)n2)cc1OCCCN1CCN(C)S1(=O)=O` [Compound 14e, 7-(2-((4-Methoxy-3-(3-(5-methyl-1,1-dioxido-1,2,5-thiadiazolidin-2-yl)propoxy)phenyl)amino)pyrimidin-4-yl)-1,3,4,5-tetrahydro-2H-benzo[b]azepin-2-one], the IC50 (Aurora-A) was 1.1 µM and the solubility kinetic at 10 s [1] was 21.4 µM (≈ 11.8 µg/mL).
Molecule `CN1CCN(CCCOc2cccc(Nc3nccc(-c4ccc5c(c4)CCCC(=O)N5)n3)c2)S1(=O)=O` [Compound 14a, 7-{2-[(3-(3-(5-Methyl-1,1-dioxido-1,2,5-thiadiazolidin-2-yl)propoxy)phenyl)amino]pyrimidin-4-yl}-1,3,4,5-tetrahydro-2H-benzo[b]azepin-2-one] has an IC50 (Aurora-A) of 1.8 µM and a solubility kinetic at 10 s [1] of 25.3 µM (≈ 13.2 µg/mL).
`CCOc1ccc(Nc2nccc(-c3ccc4c(c3)CCCC(=O)N4)n2)cc1` [Compound 2d, 7-[2-(4-Ethoxyanilino)pyrimidin-4-yl]-1,3,4,5-tetrahydro-2H-1-benzazepin-2-one] showed an IC50 (Aurora-A) of 1.5 µM, an IC50 (Aurora-B) of 20 µM and an IC50 (VEGF-R2) of 2 µM. For the same molecule, the IC50 (VEGF-R3) was 3 µM.
Work on `O=C1CCCc2cc(-c3ccnc(Nc4ccccc4O)n3)ccc2N1` [Compound 2j, 7-[2-(2-Hydroxyanilino)pyrimidin-4-yl]-1,3,4,5-tetrahydro-2H-1-benzazepin-2-one] yielded an IC50 (Aurora-A) of over 100 µM, an IC50 (Aurora-B) of over 100 µM and an IC50 (VEGF-R2) of 8.4 µM. It also gave an IC50 (VEGF-R3) of 19 µM.
With `O=C1CCCc2cc(-c3ccnc(Nc4cccc(OCCCNS(=O)(=O)N5CCOCC5)c4)n3)ccc2N1` [Compound 14b, N-{3-[3-((4-(2-Oxo-2,3,4,5-tetrahydro-1H-benzo[b]azepin-7-yl)pyrimidin-2-yl)amino)phenoxy]-propyl}morpholine-4-sulfonamide] the IC50 (Aurora-A) was 3 µM and the solubility kinetic at 10 s [1] was 19.6 µM (≈ 10.8 µg/mL).
Work on `O=C1CCCc2cc(-c3ccnc(Nc4ccc([N+](=O)[O-])cc4)n3)ccc2N1` [Compound 2i, 7-[2-(4-Nitroanilino)pyrimidin-4-yl]-1,3,4,5-tetrahydro-2H-1-benzazepin-2-one] yielded an IC50 (Aurora-A) of over 100 µM, an IC50 (Aurora-B) of over 100 µM and an IC50 (VEGF-R2) of 11 µM. For the same molecule, the IC50 (VEGF-R3) was 35 µM.
`Cc1ccc(Nc2nccc(-c3ccc4c(c3)CCCC(=O)N4)n2)cc1` [Compound 2b, 7-[2-(4-Toluidino)pyrimidin-4-yl]-1,3,4,5-tetrahydro-2H-1-benzazepin-2-one] showed an IC50 (Aurora-A) of 2.4 µM, an IC50 (Aurora-B) of 16 µM and an IC50 (VEGF-R2) of 1.8 µM. For the same molecule, the IC50 (VEGF-R3) was 4.3 µM.
`O=C1CCCc2cc(-c3ccnc(Nc4ccccc4Cl)n3)ccc2N1` [Compound 2k, 7-[2-(2-Chloroanilino)pyrimidin-4-yl]-1,3,4,5-tetrahydro-2H-1-benzazepin-2-one] showed a remaining activity at 10 µM (Aurora-A) of 74%, a remaining activity at 10 µM (Aurora-B) of 87% and a remaining activity at 10 µM (VEGF-R2) of 74%. It also gave a remaining activity at 10 µM (VEGF-R3) of 72%.
Molecule `COc1ccc(Nc2nccc(-c3ccc4c(c3)CCCC(=O)N4)n2)cc1` [Compound 2c, 7-[2-(4-Methoxyanilino)pyrimidin-4-yl]-1,3,4,5-tetrahydro-2H-1-benzazepin-2-one] has an IC50 (Aurora-A) of 1.8 µM, an IC50 (Aurora-B) of 18 µM and an IC50 (VEGF-R2) of 1.3 µM. It also gave an IC50 (VEGF-R3) of 2.5 µM.
`O=C1CCCc2cc(-c3ccnc(Nc4ccc(Cl)cc4)n3)ccc2N1` [Compound 2f, 7-[2-(4-Chloroanilino)pyrimidin-4-yl]-1,3,4,5-tetrahydro-2H-1-benzazepin-2-one] showed an IC50 (Aurora-A) of 9.4 µM, an IC50 (Aurora-B) of 40 µM and an IC50 (VEGF-R2) of 11 µM. For the same molecule, the IC50 (VEGF-R3) was 19 µM.
